From patent US20140349955A1, “USE OF FLUORINE-CONTAINING WATER SOLUBLE PLATINUM COMPLEX IN PREPARING DRUGS FOR PREVENTION AND TREATMENT OF CANCERS” (GUDUI BIOPHARMA TECHNOLOGY INC., priority 2011, published 2014)
pIC50: −log10 of the molar value.

What was measured:
Type in all cases: cell-based
Settings in all cases: 96 h, read-out: IC50 value in human tumor cells
[1] = system: A549; assay: MTS cytotoxicity test, A549
Procedure: (§1) Containing 10% bovine fetal serum, 1 mM of sodium pyruvate, 2 mM of L-glutamine, 50 U/mL of penicillin, 50 μg/mL of streptomycin
(§2) Human tumor cells: dul45-human prostate cancer; MCF-7-human breast cancer; SK0V3-human ovarian carcinoma, HT-29-human colon cancer; A549-human non-small cell lung cancer (adenocarcinoma), H460-human non-small cell lung cancer (large cell carcinoma), and animal tumor cells: L1210-mice leukemia cells used in the following activity test experiments were all purchased from Shanghai An Yan Commercial Trade Co., Ltd.
(§3) MTS test method was used in cytotoxicity assay. The tumor cells of logarithmic phase were collected, and then the concentration of cell suspension was adjusted, 100 μL of the cell suspension was added to each well, the cells were placed at 1000-10000 cells/well (edge well filled with sterile PBS). Cells were incubated at 37° C. with 5% CO2 to make cell monolayer overspread the bottom of each well (96-well flat-bottomed microplate). 100 μL of different concentrations of the test compounds was added to each well. Each condition was measured in five replicates. The microplate was incubated at 37° C. with 5% CO2 for 96 h and checked with inverted microscope. MTS working reagent: To 2 mL of MTS (2 mg/mL, prepared by DPBS) was added 100 μL of PMS (1 mg/mL, prepared by DPBS). The cell culture medium was discarded after centrifugation, the cell culture plate was carefully washed 2-3 times with PBS. Before detecting the absorbance value (OD), to each sample containing well was added 100 μL of cell culture medium, then 20 μL of MTS working reagent was added. After incubation at 37° C. with 5% CO2 for 2 h, the OD (optical density) value was detected at 490 nm.
(§4) Control group: the conditions are the same as the above without adding the active ingredient of antitumor agents, and the OD value was detected at 490 nm on the end of the experiment.
(§5) The cell inhibiting rate of the drugs to tumor cell growth was calculated according to the following formula:
(§6) 1) Cell viability (%)=OD of treated group/OD of control group×100%
(§7) 2) The cell viabilities under the different drug concentrations were determined, and then plotted against drug concentration. The IC50 value is the corresponding concentration in the obtained curve when the cell viability was 50%.

[2] = system: SKOV3; assay: MTS cytotoxicity test, SKOV3
Procedure: as §1, §2, §3, §4, §5, §6, §7

[3] = system: MCF7; assay: MTS cytotoxicity test, MCF7
Procedure: as §1, §2, §3, §4, §5, §6, §7

[4] = system: HT29; assay: MTS cytotoxicity test, HT29
Procedure: as §1, §2, §3, §4, §5, §6, §7

[5] = system: DU145; assay: MTS cytotoxicity test, DU145
Procedure: as §1, §2, §3, §4, §5, §6, §7

[6] = system: H460; assay: MTS cytotoxicity test, H460
Procedure: as §1, §2, §3, §4, §5, §6, §7

SMILES	pIC50 [1]	pIC50 [2]	pIC50 [3]	pIC50 [4]	pIC50 [5]	pIC50 [6]
O=C1[O][Pt]2([NH][C@@H]3CCCC[C@H]3[NH]2)[O]C(=O)C1(F)CCOC1O[C@H](CO)[C@@H](O)[C@H](O)[C@H]1O (stereo partly drawn) [Complex 2, cis-[trans-(1R, 2R)-diaminocyclohexane] Pt (II) (1—O—D-glucoside-propane-3-fluoro-3,3-dicarb oxylate)]	6.17	5.00	6.18	5.81	5.31	5.01
O=C1[O][Pt]2([NH][C@@H]3CCCC[C@H]3[NH]2)[O]C(=O)C1(F)CCCOC1O[C@H](CO)[C@@H](O)[C@H](O)[C@H]1O (stereo partly drawn) [Complex 3]	6.07	5.00	6.03	5.70	5.18	4.99
O=C1[O][Pt]2([NH]C3CCCCC3[NH]2)[O]C(=O)C1(F)CCOC1OC(CO)C(O)C(O)C1O (stereo not drawn) [Complex 5]	6.19	5.65	6.39	5.67	5.58	4.99
